Test results published in US20230129485A1, “SYSTEM AND METHOD FOR DETERMINING MATERIAL PROPERTIES OF MOLECULAR SYSTEMS FROM AN AB-INITIO PARAMETERIZED FORCE-FIELD” (InterX, Inc., priority 2021, published 2023).

Experiments:
[1] = Free energy of hydration by COSMO implicit solvent model (MolPro ver. 2012); settings: absolute error vs Exp (hydration)
Procedure: (§1) Due to unavailability of free energy data for the original COSMO model, the free energies of solvation for the molecule dataset are calculated using MolPro ver. […] The comparisons to other implicit solvent models such as SMD, PCM and COSMO-RS are limited to the overlap of the molecules computed using QM-parameterized force field model. The free energies of hydration as predicted by these implicit solvent models (SMD, PCM) were received.

[2] = Free energy of hydration by COSMO-RS
Procedure: as §1

[3] = Table 3; free energy of hydration, experimental; cited from earlier work
[4] = Free energy of hydration predicted with the QM-parameterized force field model (ARROW FF), classical MD and PIMD simulation in a water box; settings: for water Arrow MD Error / water Arrow PIMD8 Error: Table 3; for water Arrow MD Error: absolute error of MD hydration free energy vs experiment; for water Arrow PIMD8 Error: absolute error of PIMD8 hydration free energy vs experiment; for Arrow PIMD8 Error: absolute error vs Exp (hydration)
From the text: For example, the example QM-parameterized force-field molecular simulation process 400 can use Bennett Acceptance Ratio (BAR) to compute the free energy of hydration/solvation of the molecule in water or any other solvent. In some implementations, the analysis of the molecular dynamics simulations includes analysis, predication, and visualization of ensemble properties of atoms/molecules from atomic and molecular trajectories using the optimized parameters of the QM-parameterized force field model (i.e., the quantum mechanics rule-based reasoning technique) and the QM-parameterized force field model.
In some simulations of the QM-parameterized force field molecular simulation process, the molecules were placed in a water or cyclohexane box of size 32×32×32 Å3. Particle-Mesh Ewald (PME) algorithm was used to compute the electrostatic interactions. A 32×32×32 grid mesh and 5th power spline interpolation order can be used to compute the inverse PME sum. 9 Å cutoffs were used to compute the direct PME sum as well as the exchange and dispersion interactions. Bulk corrections were applied to account for distance cut-off of dispersion interactions. Solvation free energies were computed by decoupling the interactions between the solute and the solvent molecules. Electrostatic, exchange-repulsion and dispersion interactions were switched off simultaneously using a lambda-dependent scaling (a scaling factor power=2 was used) and a soft-coring algorithm (maximal soft-coring radius=1.5 Å, soft-coring radius scaling factor power=1). 15 lambda points unequally spaced (X=0, 0.05, 0.1, 0.2, 0.3, 0.4, 0.5, 0.6, 0.7, 0.75, 0.8, 0.85, 0.9, 0.95, 1.0) were used to decouple the solute-solvent intermolecular interactions.
In some simulations of the QM-parameterized force field molecular simulation process, energy minimization (10,000 steps) using the steepest descent algorithm was initially performed on all the simulation systems. This was followed by a 50 ps equilibration and 1 ns production runs in the isothermal-isobaric ensemble (NPT). […] Pressure was maintained at 1 atm using a MTTK barostat (relaxation time=5 ps). A Multiple Time Step (MTS) algorithm was used to integrate the equations of motion both for the classical and path-integral runs. […] The calculations were performed using the QM-parameterized force field model.
Using the QM-parameterized force field model, the QM-parameterized force field device can compute or predict the solvation free energies using both the Bennett acceptance ratio (BAR) and thermodynamic integration (TI) method with <dH/dλ> values interpolated by cubic splines. […] FIG. 7A illustrates a <dH/dλ> dependence for desolvation of Anthracene in water. FIG. 7B illustrates accumulated statistical errors for TI calculations of AG desolvation of Anthracene in water.

[5] = implicit solvent model, values received; cited from earlier work
[6] = Free energy of hydration by Solvation Model Dielectric (SMD) implicit solvent model; settings: absolute error vs Exp (hydration)
Procedure: as §1

[7] = Free energy of hydration by Polarizable Continuum Model (PCM); settings: absolute error vs Exp (hydration)
Procedure: as §1

[8] = implicit solvent model, values received; cited from earlier work; remark: listed apart in the source
[9] = CHEX/H2O partition coefficient (log D) predicted with the QM-parameterized force field model (ARROW FF)
From the text: In some simulations, the example QM-parameterized force-field molecular simulation process includes using the functional form of the bonded interactions, with force constants and equilibrium values fitted to QM energies at the MP2/aug-cc-pVTZ level of theory. In some simulations, solvents of water and cyclohexane are selected. Cyclohexane (CHEX) is nonpolar and equilibrates relatively quickly. Reliable experimental data for both CHEX solvation free energies, as well as for the CHEX/H2O partition coefficients are used in these simulations.
In some example simulations, solutes containing neutral chemical functional groups, for example carboxylic acids, alkanes, alkenes, aromatics, aldehydes, ketones, alcohols, amides, esters, thiols, sulfides, disulfides and heterocycles, are used. The simulations were performed independently by four groups using their own respective computational resources and architectures, and then averaged. FIGS. 9A-9C show solvation and hydration free energies predictions of various solutes, using the QM-parameterized force field model, in some embodiments.
The straight line is a line of agreement between experimental and simulated/predicted values, and the gray bar is the range or chemical accuracy. […] The molecules here are a subset of those in a) because only those with experimental values for CHEX solvation can be included.

Row | Compound | COSMO/Molpro Error [1] | COSMO-RS error [2] | water Exp (hydration) [3] | water Arrow MD Error [4] | water Arrow PIMD8 Error [4] | Arrow PIMD8 Error [4] | SMD free energy of hydration [5] | SMD Error [6] | PCM Error [7] | PCM free energy of hydration [8] | log D Arrow MD Error [9] | log D Arrow PIMD Error [9] | logD Arrow MD Error [9] | logD Arrow PIMD Error [9]
1 | CC(=O)N(C)C [DiMethylAcetamide] | 2.31 kcal/mol | 0.37 kcal/mol | – | – | – | – | – | – | – | – | – | – | – | –
2 | c1ccc(-c2ccccc2)cc1 [Biphenyl] | 2.64 kcal/mol | 0.31 kcal/mol | -2.66 kcal/mol | 1.17 kcal/mol | 0.13 kcal/mol | 0.13 kcal/mol | – | – | – | – | – | – | – | –
3 | C=CC [Propene] | 3.00 kcal/mol | 0.32 kcal/mol | 1.32 kcal/mol | 0.48 kcal/mol | 0.05 kcal/mol | 0.05 kcal/mol | 1.20 kcal/mol | 0.12 kcal/mol | 2.12 kcal/mol | -0.80 kcal/mol | – | – | – | –
4 | C1CCCC1 [Cyclopentane] | – | – | 1.20 kcal/mol | 0.71 kcal/mol | 0.12 kcal/mol | – | – | – | – | – | – | – | – | –
5 | C=CCCC [pent-1-ene] | 3.57 kcal/mol | 0.56 kcal/mol | 1.68 kcal/mol | 0.59 kcal/mol | 0.25 kcal/mol | 0.25 kcal/mol | 1.40 kcal/mol | 0.28 kcal/mol | 2.48 kcal/mol | -0.80 kcal/mol | – | – | – | –
6 | c1cc2ccc3cccc4ccc(c1)c2c34 [pyrene] | 1.32 kcal/mol | – | -4.52 kcal/mol | 0.45 kcal/mol | 0.01 kcal/mol | 0.01 kcal/mol | – | – | – | – | – | – | – | –
7 | c1ccc2cc3cc4ccccc4cc3cc2c1 [tetracene] | 1.43 kcal/mol | – | -5.5 kcal/mol | 0.39 kcal/mol | 0.44 kcal/mol | 0.44 kcal/mol | – | – | – | – | – | – | – | –
8 | CCCC(=O)O [butyricacid] | 2.19 kcal/mol | 0.11 kcal/mol | -6.35 kcal/mol | 0.25 kcal/mol | 0.40 kcal/mol | 0.40 kcal/mol | -5.40 kcal/mol | 0.95 kcal/mol | 2.05 kcal/mol | -4.30 kcal/mol | – | – | – | –
9 | CCCC=O [buytyraldehyde] | 4.47 kcal/mol | 0.07 kcal/mol | -3.18 kcal/mol | 0.61 kcal/mol | 0.07 kcal/mol | 0.07 kcal/mol | -3.00 kcal/mol | 0.18 kcal/mol | 0.52 kcal/mol | -3.70 kcal/mol | – | – | – | –
10 | CCCOC [MethylPropylEther] | 3.19 kcal/mol | – | -1.66 kcal/mol | 0.66 kcal/mol | 0.00 kcal/mol | 0.00 kcal/mol | -0.50 kcal/mol | 1.16 kcal/mol | 0.14 kcal/mol | -1.80 kcal/mol | – | – | – | –
11 | CC(C)(C)O [2-Methyl-2-Propanol] | 1.31 kcal/mol | 0.10 kcal/mol | – | 0.85 kcal/mol | 0.35 kcal/mol | 0.35 kcal/mol | – | 0.71 kcal/mol | 1.51 kcal/mol | – | – | – | – | –
12 | CCS [EthaneThiol] | 2.70 kcal/mol | – | -1.24 kcal/mol | 0.94 kcal/mol | 0.43 kcal/mol | 0.43 kcal/mol | -1.00 kcal/mol | 0.24 kcal/mol | 0.86 kcal/mol | -2.10 kcal/mol | – | – | – | –
13 | c1ccc2c(c1)ccc1ccccc12 [phenanthrene] | 1.97 kcal/mol | – | -3.88 kcal/mol | 0.35 kcal/mol | 0.09 kcal/mol | 0.09 kcal/mol | – | – | – | – | – | – | – | –
14 | C=C [Ethene] | 2.95 kcal/mol | 0.55 kcal/mol | 1.28 kcal/mol | 0.29 kcal/mol | 0.19 kcal/mol | 0.19 kcal/mol | 1.40 kcal/mol | 0.12 kcal/mol | 2.08 kcal/mol | -0.80 kcal/mol | – | – | – | –
15 | CN [methylamine] | 1.24 kcal/mol | 0.26 kcal/mol | -4.55 kcal/mol | 0.49 kcal/mol | 0.16 kcal/mol | 0.16 kcal/mol | – | – | – | – | – | – | – | –
16 | CCOCC [DiethylEther] | 2.00 kcal/mol | – | -1.75 kcal/mol | 0.95 kcal/mol | 0.10 kcal/mol | 0.10 kcal/mol | -1.20 kcal/mol | 0.55 kcal/mol | 0.15 kcal/mol | -1.90 kcal/mol | – | – | – | –
17 | Cc1ccc(O)cc1 [p-cresol] | – | – | – | – | – | – | – | – | – | – | 0.73 | 0.11 | 0.73 | 0.11
18 | C1CCCCCC1 [Cycloheptane] | 1.32 kcal/mol | – | 0.79 kcal/mol | 0.67 kcal/mol | 0.12 kcal/mol | 0.12 kcal/mol | – | – | – | – | – | – | – | –
19 | OC1CCCCC1 [Cyclohexanol] | 1.03 kcal/mol | 0.33 kcal/mol | -5.47 kcal/mol | 1.09 kcal/mol | 0.34 kcal/mol | 0.34 kcal/mol | – | – | – | – | – | – | – | –
20 | CC(C)(C)C [NeoPentane] | 3.25 kcal/mol | – | 2.50 kcal/mol | 1.05 kcal/mol | 0.12 kcal/mol | 0.12 kcal/mol | 2.20 kcal/mol | 0.30 kcal/mol | 2.80 kcal/mol | -0.30 kcal/mol | – | – | – | –
21 | CCSCC [DiEthylSulfide] | 3.37 kcal/mol | – | -1.43 kcal/mol | 0.89 kcal/mol | 0.12 kcal/mol | 0.12 kcal/mol | -0.20 kcal/mol | 1.23 kcal/mol | 0.57 kcal/mol | -2.00 kcal/mol | – | – | – | –
